ChEMBL document CHEMBL4138148, “Discovery of novel pyrrolo-pyridine/pyrimidine derivatives bearing pyridazinone moiety as c-Met kinase inhibitors” (Eur J Med Chem, 2017)
Activity calls are given as the source filed them. No cut-off for these calls is given here.

Columns and labels:
HepG2 [1] = assay: cells; settings: Homo sapiens, HepG2, 72 h
Description: (§1) Cytotoxicity against human HepG2 cells assessed as reduction in cell viability after 72 hrs by MTT assay

HepG2 [2] = assay: Induction of apoptosis in human HepG2 cells assessed as formation of cell shrinkage at 1.3 uM by acridine orange dye based inverted fluorescence microscopy; assay type: functional
HepG2 [3] = assay: Induction of apoptosis in human HepG2 cells assessed as formation of DNA fragments at 1.3 uM by acridine orange dye based inverted fluorescence microscopy; assay type: functional, cell-based
[4] = target: Vascular endothelial growth factor receptor 2 (Homo sapiens, UniProt P35968); assay: Inhibition of VEGFR2 (unknown origin) using FAM-labeled peptide as substrate preincubated for 10 mins followed by substrate addition by mobility shift assay
HepG2 [5] = assay: Induction of apoptosis in human HepG2 cells assessed as late apoptotic cells at 1.3 uM by Annexin V-FITC/propidium iodide staining based flow cytometry (reference value: 6.07%); assay type: functional
[6] = target: T1, Receptor-type tyrosine-protein kinase FLT3 (Homo sapiens, UniProt P36888); assay: Inhibition of FLT3 (unknown origin) using FAM-labeled peptide as substrate preincubated for 10 mins followed by substrate addition by mobility shift assay
T1 sequence (P36888 whole entry): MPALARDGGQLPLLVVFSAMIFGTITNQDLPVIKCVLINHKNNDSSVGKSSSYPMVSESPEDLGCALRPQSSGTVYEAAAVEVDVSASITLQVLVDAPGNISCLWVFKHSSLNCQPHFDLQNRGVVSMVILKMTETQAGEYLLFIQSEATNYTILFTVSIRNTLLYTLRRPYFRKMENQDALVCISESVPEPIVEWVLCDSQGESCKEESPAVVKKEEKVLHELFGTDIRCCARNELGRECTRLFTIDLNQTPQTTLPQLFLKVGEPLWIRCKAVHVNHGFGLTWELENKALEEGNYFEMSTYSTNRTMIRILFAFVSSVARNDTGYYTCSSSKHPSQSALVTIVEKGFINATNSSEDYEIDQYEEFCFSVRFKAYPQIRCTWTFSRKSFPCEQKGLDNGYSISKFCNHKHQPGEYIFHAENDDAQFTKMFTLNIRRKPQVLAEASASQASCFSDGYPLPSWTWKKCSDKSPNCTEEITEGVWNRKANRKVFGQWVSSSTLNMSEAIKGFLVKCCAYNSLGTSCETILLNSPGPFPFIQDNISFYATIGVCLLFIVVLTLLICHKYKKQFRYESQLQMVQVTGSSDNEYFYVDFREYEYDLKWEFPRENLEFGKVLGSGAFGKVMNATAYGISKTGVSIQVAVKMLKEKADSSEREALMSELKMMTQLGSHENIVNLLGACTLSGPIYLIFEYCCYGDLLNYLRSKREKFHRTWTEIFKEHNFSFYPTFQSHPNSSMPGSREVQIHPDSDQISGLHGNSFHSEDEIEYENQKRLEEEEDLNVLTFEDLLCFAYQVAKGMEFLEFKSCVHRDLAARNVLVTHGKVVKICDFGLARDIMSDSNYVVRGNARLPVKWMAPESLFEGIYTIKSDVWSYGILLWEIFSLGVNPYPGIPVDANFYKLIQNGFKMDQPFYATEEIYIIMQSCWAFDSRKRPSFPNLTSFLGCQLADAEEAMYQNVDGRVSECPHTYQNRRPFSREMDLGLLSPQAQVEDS

MCF7 [7] = settings: Homo sapiens
Description: (§2) Cytotoxicity against human MCF7 cells assessed as reduction in cell viability after 72 hrs by MTT assay

[8] = target: Mast/stem cell growth factor receptor Kit (Homo sapiens, UniProt P10721); assay: Inhibition of cKIT (unknown origin) using FAM-labeled peptide as substrate preincubated for 10 mins followed by substrate addition by mobility shift assay
A549 [9] = settings: Homo sapiens
Description: (§3) Cytotoxicity against human A549 cells assessed as reduction in cell viability after 72 hrs by MTT assay

[10] = target: Epidermal growth factor receptor (Homo sapiens, UniProt P00533); assay: Inhibition of EGFR (unknown origin) using FAM-labeled peptide as substrate preincubated for 10 mins followed by substrate addition by mobility shift assay
PC-3 [11] = settings: Homo sapiens
Description: (§4) Cytotoxicity against human PC3 cells assessed as reduction in cell viability after 72 hrs by MTT assay

PC-3 [12] = assay: cells; settings: Homo sapiens, PC-3, 72 h
Description: as §4

HepG2 [13] = assay: Induction of apoptosis in human HepG2 cells assessed as necrotic cells at 1.3 uM by Annexin V-FITC/propidium iodide staining based flow cytometry (reference value: 0.28%); assay type: functional
MCF7 [14] = assay: cells; settings: Homo sapiens, MCF7, 72 h
Description: as §2

HepG2 [15] = assay: Induction of apoptosis in human HepG2 cells assessed as early apoptotic cells at 1.3 uM by Annexin V-FITC/propidium iodide staining based flow cytometry (reference value: 6.11%); assay type: functional
A549 [16] = assay: cells; settings: Homo sapiens, A549, 72 h
Description: as §3

HepG2 [17] = settings: Homo sapiens
Description: as §1

HepG2 [18] = assay: Induction of apoptosis in human HepG2 cells assessed as formation of chromatin condensation at 1.3 uM by acridine orange dye based inverted fluorescence microscopy; assay type: functional, cell-based
HepG2 [19] = assay: Induction of apoptosis in human HepG2 cells assessed as viable cells at 1.3 uM by Annexin V-FITC/propidium iodide staining based flow cytometry (reference value: 87.54%); assay type: functional; settings: read-out: Activity
[20] = target: Hepatocyte growth factor receptor (Homo sapiens, UniProt P08581); assay: Inhibition of c-MET (unknown origin) using FAM-labeled peptide as substrate preincubated for 10 mins followed by substrate addition by mobility shift assay
HepG2 [21] = assay: Induction of apoptosis in human HepG2 cells assessed as early apoptotic cells at 2.8 uM by Annexin V-FITC/propidium iodide staining based flow cytometry (reference value: 6.11%); assay type: functional
HepG2 [22] = assay: Induction of apoptosis in human HepG2 cells assessed as late apoptotic cells at 2.8 uM by Annexin V-FITC/propidium iodide staining based flow cytometry (reference value: 6.07%); assay type: functional
HepG2 [23] = assay: Induction of apoptosis in human HepG2 cells assessed as necrotic cells at 2.8 uM by Annexin V-FITC/propidium iodide staining based flow cytometry (reference value: 0.28%); assay type: functional
HepG2 [24] = assay: Induction of apoptosis in human HepG2 cells assessed as viable cells at 2.8 uM by Annexin V-FITC/propidium iodide staining based flow cytometry (reference value: 87.54%); assay type: functional; settings: read-out: Activity

Chain of Mast/stem cell growth factor receptor Kit (P10721 whole entry): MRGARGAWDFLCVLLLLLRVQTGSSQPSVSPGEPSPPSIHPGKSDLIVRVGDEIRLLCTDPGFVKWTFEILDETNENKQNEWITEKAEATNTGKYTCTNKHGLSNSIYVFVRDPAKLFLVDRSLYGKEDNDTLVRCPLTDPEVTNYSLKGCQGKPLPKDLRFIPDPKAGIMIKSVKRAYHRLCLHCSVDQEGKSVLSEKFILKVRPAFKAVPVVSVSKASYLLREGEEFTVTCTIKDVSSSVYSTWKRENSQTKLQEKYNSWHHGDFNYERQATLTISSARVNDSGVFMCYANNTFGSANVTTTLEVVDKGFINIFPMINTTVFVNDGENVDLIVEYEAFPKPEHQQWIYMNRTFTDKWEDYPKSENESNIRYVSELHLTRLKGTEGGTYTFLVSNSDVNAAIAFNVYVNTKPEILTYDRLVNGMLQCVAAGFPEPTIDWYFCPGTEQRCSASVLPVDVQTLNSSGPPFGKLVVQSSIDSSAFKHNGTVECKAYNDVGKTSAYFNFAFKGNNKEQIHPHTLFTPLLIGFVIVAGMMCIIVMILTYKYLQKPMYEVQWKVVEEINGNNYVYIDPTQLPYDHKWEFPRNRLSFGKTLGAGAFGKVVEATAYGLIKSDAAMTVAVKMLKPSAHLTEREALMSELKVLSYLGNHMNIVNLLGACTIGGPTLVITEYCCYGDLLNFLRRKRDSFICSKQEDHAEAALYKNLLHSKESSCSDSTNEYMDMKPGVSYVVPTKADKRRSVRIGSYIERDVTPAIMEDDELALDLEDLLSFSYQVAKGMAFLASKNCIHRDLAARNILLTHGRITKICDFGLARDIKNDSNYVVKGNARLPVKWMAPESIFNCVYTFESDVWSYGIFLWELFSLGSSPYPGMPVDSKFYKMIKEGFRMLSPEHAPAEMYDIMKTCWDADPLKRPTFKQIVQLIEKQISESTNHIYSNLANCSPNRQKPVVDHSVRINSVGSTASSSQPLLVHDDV
Chain of Vascular endothelial growth factor receptor 2 (P35968 whole entry): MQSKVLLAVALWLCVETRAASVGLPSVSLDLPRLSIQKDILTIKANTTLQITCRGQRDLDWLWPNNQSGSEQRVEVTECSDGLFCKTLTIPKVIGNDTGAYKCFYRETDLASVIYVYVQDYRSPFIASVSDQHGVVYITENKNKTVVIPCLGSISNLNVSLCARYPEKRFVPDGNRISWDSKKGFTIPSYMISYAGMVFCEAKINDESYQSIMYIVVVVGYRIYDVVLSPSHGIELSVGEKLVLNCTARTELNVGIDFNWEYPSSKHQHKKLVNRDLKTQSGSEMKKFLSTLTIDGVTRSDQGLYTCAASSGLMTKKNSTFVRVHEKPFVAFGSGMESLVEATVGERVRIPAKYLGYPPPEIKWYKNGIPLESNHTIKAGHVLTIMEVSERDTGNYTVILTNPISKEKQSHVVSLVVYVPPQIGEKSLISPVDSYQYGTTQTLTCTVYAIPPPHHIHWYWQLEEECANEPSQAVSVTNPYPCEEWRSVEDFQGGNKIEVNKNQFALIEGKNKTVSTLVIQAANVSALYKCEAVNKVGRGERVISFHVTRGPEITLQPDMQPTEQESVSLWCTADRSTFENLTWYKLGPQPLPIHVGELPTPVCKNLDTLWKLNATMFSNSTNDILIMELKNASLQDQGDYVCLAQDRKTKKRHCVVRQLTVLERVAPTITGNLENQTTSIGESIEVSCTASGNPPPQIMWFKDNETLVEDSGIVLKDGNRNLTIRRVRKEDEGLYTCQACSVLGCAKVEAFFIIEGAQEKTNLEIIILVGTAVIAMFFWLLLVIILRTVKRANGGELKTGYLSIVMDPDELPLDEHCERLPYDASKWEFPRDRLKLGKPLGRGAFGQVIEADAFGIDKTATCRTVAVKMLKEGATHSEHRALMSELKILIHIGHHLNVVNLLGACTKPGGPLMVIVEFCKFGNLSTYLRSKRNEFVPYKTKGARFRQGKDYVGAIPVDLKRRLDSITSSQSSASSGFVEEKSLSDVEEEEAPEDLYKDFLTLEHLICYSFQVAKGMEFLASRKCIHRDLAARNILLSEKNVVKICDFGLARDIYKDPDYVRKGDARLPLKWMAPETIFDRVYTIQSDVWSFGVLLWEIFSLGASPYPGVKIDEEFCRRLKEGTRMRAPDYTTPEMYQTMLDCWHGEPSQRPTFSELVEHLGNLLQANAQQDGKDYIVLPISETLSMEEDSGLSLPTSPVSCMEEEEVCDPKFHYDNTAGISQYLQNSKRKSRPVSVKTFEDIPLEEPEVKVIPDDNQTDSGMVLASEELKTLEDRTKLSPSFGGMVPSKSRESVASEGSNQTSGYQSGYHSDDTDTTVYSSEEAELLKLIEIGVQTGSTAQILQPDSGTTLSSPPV
Chain of Epidermal growth factor receptor (P00533 whole entry): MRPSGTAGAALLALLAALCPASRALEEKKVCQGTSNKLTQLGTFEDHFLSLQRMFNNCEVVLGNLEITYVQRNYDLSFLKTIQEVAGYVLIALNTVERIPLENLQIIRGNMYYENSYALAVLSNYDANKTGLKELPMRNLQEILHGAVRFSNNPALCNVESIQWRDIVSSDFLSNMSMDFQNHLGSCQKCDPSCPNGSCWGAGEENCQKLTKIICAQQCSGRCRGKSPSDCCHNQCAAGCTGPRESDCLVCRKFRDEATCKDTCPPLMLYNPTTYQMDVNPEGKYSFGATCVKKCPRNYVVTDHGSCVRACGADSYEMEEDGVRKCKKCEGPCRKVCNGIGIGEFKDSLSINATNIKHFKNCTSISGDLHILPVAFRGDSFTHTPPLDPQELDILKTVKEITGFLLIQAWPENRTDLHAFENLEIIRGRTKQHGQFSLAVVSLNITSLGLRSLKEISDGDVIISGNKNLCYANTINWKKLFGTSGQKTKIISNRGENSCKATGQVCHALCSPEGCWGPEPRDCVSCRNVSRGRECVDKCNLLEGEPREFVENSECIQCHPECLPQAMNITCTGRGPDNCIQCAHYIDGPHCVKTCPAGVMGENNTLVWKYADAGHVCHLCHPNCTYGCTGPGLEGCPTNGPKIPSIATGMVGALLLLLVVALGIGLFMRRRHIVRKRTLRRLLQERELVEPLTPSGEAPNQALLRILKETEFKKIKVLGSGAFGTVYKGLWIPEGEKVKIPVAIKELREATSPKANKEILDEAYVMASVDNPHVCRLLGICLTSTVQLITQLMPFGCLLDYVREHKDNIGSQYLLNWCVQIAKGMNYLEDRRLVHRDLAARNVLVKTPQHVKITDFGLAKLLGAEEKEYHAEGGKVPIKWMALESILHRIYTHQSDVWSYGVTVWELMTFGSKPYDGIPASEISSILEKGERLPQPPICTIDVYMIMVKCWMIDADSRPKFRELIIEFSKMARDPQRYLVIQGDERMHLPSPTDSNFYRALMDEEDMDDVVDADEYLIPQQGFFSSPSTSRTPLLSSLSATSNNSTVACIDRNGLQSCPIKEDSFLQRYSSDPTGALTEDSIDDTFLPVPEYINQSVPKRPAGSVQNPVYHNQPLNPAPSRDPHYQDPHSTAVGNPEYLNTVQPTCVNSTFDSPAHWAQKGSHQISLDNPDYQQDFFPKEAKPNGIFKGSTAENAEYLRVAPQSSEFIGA
Chain of Hepatocyte growth factor receptor (P08581 whole entry): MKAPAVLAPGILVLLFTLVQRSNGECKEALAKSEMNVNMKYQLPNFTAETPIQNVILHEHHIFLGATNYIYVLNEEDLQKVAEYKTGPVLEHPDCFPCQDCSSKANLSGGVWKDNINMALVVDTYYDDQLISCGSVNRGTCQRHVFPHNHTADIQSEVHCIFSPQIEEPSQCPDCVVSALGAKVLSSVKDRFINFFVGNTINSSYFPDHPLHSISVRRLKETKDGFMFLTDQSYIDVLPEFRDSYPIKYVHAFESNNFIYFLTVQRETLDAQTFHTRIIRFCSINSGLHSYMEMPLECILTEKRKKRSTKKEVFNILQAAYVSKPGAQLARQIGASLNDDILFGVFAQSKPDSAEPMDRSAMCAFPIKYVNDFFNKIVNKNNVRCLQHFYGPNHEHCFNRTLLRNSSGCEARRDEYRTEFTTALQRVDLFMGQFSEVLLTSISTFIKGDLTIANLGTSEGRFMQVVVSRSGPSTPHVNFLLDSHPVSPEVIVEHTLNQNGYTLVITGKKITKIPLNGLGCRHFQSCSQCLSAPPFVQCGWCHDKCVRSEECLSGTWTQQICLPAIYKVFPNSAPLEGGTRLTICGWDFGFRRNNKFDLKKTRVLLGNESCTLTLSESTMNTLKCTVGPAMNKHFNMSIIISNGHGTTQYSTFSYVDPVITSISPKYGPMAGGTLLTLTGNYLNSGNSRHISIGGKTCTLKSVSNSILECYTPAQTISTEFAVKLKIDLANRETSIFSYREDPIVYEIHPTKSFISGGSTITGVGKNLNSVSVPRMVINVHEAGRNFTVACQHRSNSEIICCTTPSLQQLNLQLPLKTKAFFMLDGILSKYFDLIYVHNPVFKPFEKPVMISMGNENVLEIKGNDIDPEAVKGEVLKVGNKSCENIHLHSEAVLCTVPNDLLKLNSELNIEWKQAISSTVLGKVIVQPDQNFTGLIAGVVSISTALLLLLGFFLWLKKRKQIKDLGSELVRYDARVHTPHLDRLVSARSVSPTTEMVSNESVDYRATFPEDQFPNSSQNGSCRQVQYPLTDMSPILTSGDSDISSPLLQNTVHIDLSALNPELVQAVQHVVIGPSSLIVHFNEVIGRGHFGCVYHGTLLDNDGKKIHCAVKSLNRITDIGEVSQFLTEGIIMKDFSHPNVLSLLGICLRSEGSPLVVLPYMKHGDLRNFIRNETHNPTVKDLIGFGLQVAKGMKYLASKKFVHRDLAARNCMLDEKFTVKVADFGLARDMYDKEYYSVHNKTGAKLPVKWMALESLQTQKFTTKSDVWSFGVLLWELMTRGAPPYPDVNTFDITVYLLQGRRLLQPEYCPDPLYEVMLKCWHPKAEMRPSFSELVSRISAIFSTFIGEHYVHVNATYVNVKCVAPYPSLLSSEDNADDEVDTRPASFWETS

With O=C(Nc1ccc(Oc2ccnc3[nH]ccc23)cc1)c1nn(-c2ccc(Cl)c(C(F)(F)F)c2)ccc1=O the IC50 (HepG2 [1]) was 1320 nM, the Activity (HepG2 [2]) was “Active” and the Activity (HepG2 [3]) was “Active”. The IC50 [4] was 2400 nM, the Activity (HepG2 [5]) was 11.89% and the IC50 [6] was 770 nM. For the same compound, the Activity (MCF7 [7]) was “Dose-dependent effect”, the IC50 [8] was 2200 nM and the Activity (A549 [9]) was “Dose-dependent effect”. The IC50 [10] was over 10000 nM, the Activity (PC-3 [11]) was “Dose-dependent effect” and the IC50 (PC-3 [12]) was 4630 nM. The Activity (HepG2 [13]) was 2.31%, the IC50 (MCF7 [14]) was 6270 nM and the Activity (HepG2 [15]) was 23.01%. For the same compound, the IC50 (A549 [16]) was 2190 nM, the Activity (HepG2 [17]) was “Dose-dependent effect” and the Activity (HepG2 [18]) was “Active”. It also gave a viability at 1.3 µM (HepG2 [19]) of 62.8% and an IC50 [20] of 73 nM.

COc1cc2c(Oc3ccc(NC(=O)C4(C(=O)Nc5ccc(F)cc5)CC4)cc3F)ccnc2cc1OCCCN1CCOCC1 [FORETINIB] gave an Activity (HepG2 [21]) of 16.09%, an Activity (HepG2 [22]) of 10.3% and an Activity (HepG2 [23]) of 1.25%. The viability at 2.8 µM (HepG2 [24]) was 72.4%.
